The source of these data is patent publication US20100130515A1, “Polymorphs and solvates of a pharmaceutical and method of making” (BIOGEN IDEC INC., priority 2007, published 2010).

Each structure is given as a SMILES string.

A short description of data set [1]: Relative stability of forms A and B by vapour diffusion experiment (XRPD). The note with it: NMP vapour, room temperature; for relative stability of the polymorphs: intimate mixture of forms A and B, followed by XRPD. It is filed as physicochemical. On the procedure: The relative stabilities of the forms A and B was determined by a vapour diffusion experiment. Approximately equal amounts of the two forms were ground together to produce an intimate mixture. The mixture was packed into a silicon 510-cut recessed wafer XRPD holder and the XRPD of the mixture determined. The holder was then placed in a covered dish containing NMP (a known solvent 1) at room temperature. The mixture was re-examined from time to time to monitor any changes in the XRPD pattern.
The traces from bottom to top in FIG. 8 were recorded initially, at 24 hours, at 3 days, at 1 week, at 10 days, and at 23 days; the topmost traces are a form A reference and a form B reference.

A short description of data set [2]: Relative stability of forms D and H by vapour diffusion experiment (XRPD). As to conditions: inferred from the higher desolvation temperature, XRPD results inconclusive. Format: physicochemical. From the text: The relative stabilities of Forms D and H was investigated by a vapour diffusion experiment. Approximately equal amounts of the two forms were combined to produce an intimate mixture. The mixture was packed into a silicon XRPD holder and the XRPD of the mixture determined. The holder was then placed in a covered dish containing THF:NMP approx. 90:10 v/v at room temperature. The mixture was re-examined from time to time to monitor any changes in the XRPD pattern.
There was been no significant change in the XRPD traces over 12 days.

Another data set concerns cataleptic responses. The note with it: cited from earlier work.
Another data set has as its system Parkinsonian patients. As to conditions: cited from earlier work.

Take `Cc1cc(Cn2nnc3c(-c4ccco4)nc(N)nc32)ccc1N` [Form A, 3-(4-amino-3-methylbenzyl)-7-(furan-2-yl)-3H-[1,2,3]triazolo[4,5-d]pyrimidin-5-amine]: the “relative stability of the polymorphs” value in data set [1] is given as “more stable polymorph”; in data set [1] (listed as form A), “more thermodynamically more stable”.

`Cc1cc(Cn2nnc3c(-c4ccco4)nc(N)nc32)ccc1N` [Form B, 3-(4-amino-3-methylbenzyl)-7-(furan-2-yl)-3H-[1,2,3]triazolo[4,5-d]pyrimidin-5-amine]: the “time point by which the XRPD peaks characteristic of Form B disappear completely” value in data set [1] (mixture of forms A and B) was at most 23 days.

With `Cc1cc(Cn2nnc3c(-c4ccco4)nc(N)nc32)ccc1N` [Form H, 3-(4-amino-3-methylbenzyl)-7-(furan-2-yl)-3H-[1,2,3]triazolo[4,5-d]pyrimidin-5-amine], in data set [2], the “relative stability of the THF solvates” value is listed as “more likely to be the stable form”.

For `CCCn1c(=O)c2c(nc(/C=C/c3ccc(OC)c(OC)c3)n2C)n(CCC)c1=O` [KF 17837, E-8-(3,4dimethoxystyryl)-1,3-dipropyl-7-methylxanthine], in the data set on cataleptic responses (in vivo), the “anticataleptic effects of a subthreshold dose of L-DOPA plus benserazide” value was “potentiated”; the “catalepsy induced by haloperidol and reserpine” value was “reduced”. Besides, the “cataleptic responses induced by intracerebroventricular CGS 21680” value with cataleptic responses (oral administration) is on record as “significantly ameliorated”.

Consider `Cn1c(=O)c2[nH]cnc2n(C)c1=O` [theophylline, 1,3-dimethylxanthine], for which the “mean objective disability scores” value in the data set on Parkinsonian patients (15 Parkinsonian patients, up to 12 weeks, 150 mg/day) is “significant improvements”. For the same compound, the “patients reporting moderate or marked subjective improvement” value in the data set on Parkinsonian patients (of 15 Parkinsonian patients, up to 12 weeks, 150 mg/day) was 11. In the data set with Parkinsonian patients (slow release oral preparation 150 mg/day, after one week), the serum theophylline levels is 4.44 mg/L.
